# Where “and” joins values, the source holds several entries; their conditions need not be identical. Equal entries are not always repeated.
# System: Xenopus laevis tadpoles
# Assay: Behavioral test: locomotion of free-swimming tadpoles under light cycles
# Format: in vivo
# Conditions: for reduction in locomotor activity in the dark vs baseline / Normalized travelled distance by tadpoles (/baseline/control), mean: 5 µM; for reduction in locomotor activity in the dark vs baseline: 45 min incubation; for Normalized travelled distance by tadpoles (/baseline): per well (mean of 3 tadpoles)
# Procedure: In our behavioral assay, tadpoles were placed in groups of three animals per well of a 12-well plate allowing them to swim freely. Their baseline locomotion was recorded for 3 min in the dark, after which they were incubated for 45 min in a solution containing either 0.1% DMSO (control) or 5 μM OptoNAM-3 (refer to Methods and Figure S5A for details). For each condition (control and OptoNAM-3), tadpole locomotion was recorded for 3 min in the dark, followed by cycles of 1 min illumination at 365 nm and then 550 nm, and interspersed with 3 min rest periods to avoid bias due to a poststimulation refractory period[51],[56] (Figure S5A). We also conducted the same protocol using 460/550 nm light cycles, as OptoNAM-3 can switch from the trans to cis state upon exposure to blue light at 460 nm when pre-equilibrated on cells (see above). The tadpole traveled distance was calculated from precise position coordinates of tadpole body parts across frames, assessed by automatic position multianimal tracking using the open-source program DeepLabCut.[57],[58]Xenopus laevis tadpoles present nonvisual photoreceptors that generate a photomotor response characterized by an increase of activity upon UV light illumination.[59] We indeed observed an increase in tadpole locomotion with UV and blue light compared to 550 nm light in the control condition (∼1.5-fold, Figures 6A,B and S5B,C, gray points). The photodependent effect of OptoNAM-3 on locomotion was therefore quantified by calculating the traveled distance normalized twice: by the tadpole baseline locomotion (to decrease interindividual variability linked to the locomotion speed) and, for each condition, by the locomotion of the control group (to remove the nonspecific effect of UV or blue light). […] Their locomotion could be restored to baseline activity with UV or blue light and inhibited again by 550 nm light for two cycles (Figure 6C,D and Movies S1 and S2). Consequently, OptoNAM-3 enabled fast and reversible control of tadpole locomotion using light. In addition, the compound red-shifted properties observed in vitro were conserved in vivo. OptoNAM-3 therefore holds great promise to photocontrol native GluN2B-NMDARs with the high biocompatibility of red-shifted photoswitches.[29],[31]
# Xenopus laevis embryos were obtained from the European Xenopus Resource Centre (EXRC, Portsmouth, UK) or TEFOR Paris Sackay (Saclay, France), maintained in Modified Barth’s Saline (MBS) 0.1× (pH adjusted to 7.8 with NaOH), and supplemented with 10 μg/mL of gentamicin, in 10 cm Petri dishes with a maximum of 50 tadpoles per dish. The embryos were stored at 18 °C until they reached stage 49 (12–14 days postfertilization).[86] Experiments on Xenopus tadpoles were performed according to European Union guidelines (project authorization Apafis #44976–2023092616413977)
# For the experiments (see Figure S5A), stage 49 X. laevis tadpoles were placed in the center of a 12-well plate at a density of three animals per well in 0.1× MBS. The 12-well plate was covered with a 3D-printed dome equipped with a liquid guide (15 cm) connected to a multichannel LED delivery system (CoolLed pE-4000) at the top. The plate was positioned on optical cast plastic infrared filters, which allowed only wavelengths above 650 nm to pass, and red light (770 nm at 15% intensity) was continuously applied during recording to enable video recording in the dark. […] Subsequently, the tadpoles were incubated in the dark for 30 min in a 60 × 15 mm Petri dish containing 5 mL of either the vehicle (0.1% DMSO in MBS 0.1×) or OptoNAM-3 solution (5 μM in MBS 0.1×) to facilitate drug penetration. Afterward, the tadpoles were transferred back to the 12-well plate, which contained either the vehicle solution or OptoNAM-3 (5 μM), and habituation to red light was performed again for 15 min. […]
# [1] = Sup. Fig. 5B, UV/green cycles, second data block (c27-c50), raw
smiles,measurement,setting,value
"c1ccc(/N=N/c2ccc(CCNc3ccncc3)cc2)cc1 [OptoNAM-3, (E)-N-(4-(Phenyldiazenyl)phenethyl)pyridin-4-amine]",reduction in locomotor activity in the dark vs baseline,UV/visible cycle protocol group,35%
same,reduction in locomotor activity in the dark vs baseline,blue/green cycle protocol group,50%
same,"Normalized travelled distance by tadpoles (/baseline/control), mean","Fig 6C, 365 nm (1), UV/green light cycle experiment",1.089
same,"Normalized travelled distance by tadpoles (/baseline/control), mean","Fig 6C, 365 nm (2), UV/green light cycle experiment",0.883
same,"Normalized travelled distance by tadpoles (/baseline/control), mean","Fig 6C, 550 nm (1), UV/green light cycle experiment",0.484
same,"Normalized travelled distance by tadpoles (/baseline/control), mean","Fig 6C, 550 nm (2), UV/green light cycle experiment",0.221
same,"Normalized travelled distance by tadpoles (/baseline/control), mean","Fig 6C, dark, UV/green light cycle experiment",0.649
same,"Normalized travelled distance by tadpoles (/baseline/control), mean","Fig 6D, 460 nm (1), blue/green light cycle experiment",2.548
same,"Normalized travelled distance by tadpoles (/baseline/control), mean","Fig 6D, 460 nm (2), blue/green light cycle experiment",2.278
same,"Normalized travelled distance by tadpoles (/baseline/control), mean","Fig 6D, 550 nm (1), blue/green light cycle experiment",0.587
same,"Normalized travelled distance by tadpoles (/baseline/control), mean","Fig 6D, 550 nm (2), blue/green light cycle experiment",0.462
same,"Normalized travelled distance by tadpoles (/baseline/control), mean","Fig 6D, dark, blue/green light cycle experiment",0.509
same,"Distance in mm, well mean of 3 tadpoles, uv 1 min","Sup. Fig. 5B, UV/green cycles, first data block (c1-c24), raw",543.756 mm and 730.486 mm and 588.764 mm and 724.010 mm and 734.699 mm and 651.720 mm and 525.360 mm and 469.552 mm
same,"Distance in mm, well mean of 3 tadpoles, green2 1 min",[1],28.734 mm and 47.149 mm and 41.068 mm and 52.900 mm and 46.164 mm and 30.050 mm and 28.925 mm and 43.119 mm
same,"Distance in mm, well mean of 3 tadpoles, uv 1 min",[1],636.734 mm and 582.355 mm and 684.728 mm and 679.263 mm and 728.479 mm and 513.366 mm and 700.914 mm and 476.462 mm
same,"Normalized travelled distance by tadpoles (/baseline), single well","Sup. Fig. 5B, 365 nm (1), individual wells",1.393 and 3.082 and 2.491 and 2.557 and 3.849 and 6.596 and 1.808 and 1.431 and 6.280 and 5.411 and 9.003 and 6.422 and 6.492
same,"Normalized travelled distance by tadpoles (/baseline), mean","Sup. Fig. 5B, 365 nm (1), mean of 16 wells",4.878
same,"Normalized travelled distance by tadpoles (/baseline), single well","Sup. Fig. 5B, 365 nm (2), individual wells",1.002 and 2.077 and 1.181 and 1.514 and 2.542 and 5.415 and 1.765 and 1.460 and 5.497 and 4.718 and 10.726 and 5.196 and 4.515
same,"Normalized travelled distance by tadpoles (/baseline), mean","Sup. Fig. 5B, 365 nm (2), mean of 16 wells",4.635
same,"Normalized travelled distance by tadpoles (/baseline), single well","Sup. Fig. 5B, 550 nm (1), individual wells",0.458 and 1.858 and 0.896 and 0.456 and 0.161 and 0.143 and 0.389 and 0.051 and 0.457 and 0.356 and 0.468 and 0.574 and 0.522
same,"Normalized travelled distance by tadpoles (/baseline), mean","Sup. Fig. 5B, 550 nm (1), mean of 16 wells",0.561
same,"Normalized travelled distance by tadpoles (/baseline), single well","Sup. Fig. 5B, 550 nm (2), individual wells",0.073 and 0.057 and 0.075 and 0.047 and 0.119 and 0.187 and 0.194 and 0.072 and 0.283 and 0.438 and 0.540 and 0.500 and 0.411
same,"Normalized travelled distance by tadpoles (/baseline), mean","Sup. Fig. 5B, 550 nm (2), mean of 16 wells",0.274
same,"Normalized travelled distance by tadpoles (/baseline), single well","Sup. Fig. 5B, dark, individual wells (each well is the mean of 3 tadpole)",0.095 and 0.145 and 0.255 and 0.231 and 0.246 and 0.190 and 0.129 and 0.073 and 0.384 and 0.405 and 0.424 and 0.476 and 0.614
same,"Normalized travelled distance by tadpoles (/baseline), mean","Sup. Fig. 5B, dark, mean of 16 wells (each well is the mean of 3 tadpole)",0.393
same,Normalized travelled distance by tadpoles (/baseline),"Sup. Fig. 5B, dark",0.643 and 0.955 and 1.031
same,"Normalized travelled distance by tadpoles (/baeline/control), single well","Sup. Fig. 5C, 460 nm (1), individual wells",1.914 and 1.376 and 8.550 and 2.480 and 4.315 and 7.810 and 5.706 and 5.046 and 11.224 and 1.065 and 13.799 and 8.327 and 1.491
same,"Normalized travelled distance by tadpoles (/baeline/control), mean","Sup. Fig. 5C, 460 nm (1), mean of 17 wells",6.279
same,"Normalized travelled distance by tadpoles (/baeline/control), single well","Sup. Fig. 5C, 460 nm (2), individual wells",2.036 and 1.506 and 10.137 and 2.268 and 4.306 and 11.041 and 6.016 and 15.287 and 9.339 and 1.297 and 11.889 and 4.687 and 3.893
same,"Normalized travelled distance by tadpoles (/baeline/control), mean","Sup. Fig. 5C, 460 nm (2), mean of 17 wells",6.476
same,Normalized travelled distance by tadpoles (/baseline),"Sup. Fig. 5C, 460 nm (2)",8.083 and 4.823 and 6.568 and 6.920
same,"Normalized travelled distance by tadpoles (/baeline/control), single well","Sup. Fig. 5C, 550 nm (1), individual wells",0.384 and 0.350 and 1.155 and 0.578 and 0.301 and 1.159 and 2.310 and 0.844 and 0.446 and 0.287 and 2.947 and 0.796 and 0.259
same,"Normalized travelled distance by tadpoles (/baeline/control), mean","Sup. Fig. 5C, 550 nm (1), mean of 17 wells",0.899
same,"Normalized travelled distance by tadpoles (/baeline/control), single well","Sup. Fig. 5C, 550 nm (2), individual wells",0.201 and 0.140 and 0.631 and 0.384 and 0.385 and 0.939 and 0.448 and 0.727 and 1.019 and 0.143 and 0.892 and 1.756 and 0.609
same,"Normalized travelled distance by tadpoles (/baeline/control), mean","Sup. Fig. 5C, 550 nm (2), mean of 17 wells",0.702
same,Normalized travelled distance by tadpoles (/baseline),"Sup. Fig. 5C, 550 nm (2)",1.231 and 0.815 and 0.780 and 0.842
same,"Normalized travelled distance by tadpoles (/baeline/control), single well","Sup. Fig. 5C, dark, individual wells (each well is the mean of 3 tadpole)",0.118 and 0.080 and 0.825 and 0.228 and 0.352 and 1.330 and 0.587 and 0.877 and 0.773 and 0.144 and 0.553 and 0.717 and 0.589
same,"Normalized travelled distance by tadpoles (/baeline/control), mean","Sup. Fig. 5C, dark, mean of 17 wells (each well is the mean of 3 tadpole)",0.520
same,Normalized travelled distance by tadpoles (/baseline),"Sup. Fig. 5C, dark",0.453 and 0.357 and 0.524 and 0.331

# Source: publication PMC11413854, “Reversible Control of Native GluN2B-Containing NMDA Receptors with Visible Light” (ACS Chemical Neuroscience, 2024)
